The values below come from PMC6127930 (2018).

The experiment has as its system oxytetracycline binding aptamer (OBA) (DNA, aptamer) CGTACGGAATTCGCTAGCACGTTGACGCTGGTGCCCGGTTGTGGTGCGAGTGTTGTGTGGATCCGAGCTCCACGTG
Description: magnetic capture, UV-Vis of unbound at 368 nm. To be noted: 100 mM NaCl, 5 mM KCl, 2 mM MgCl2, 1 mM CaCl2, 20 mM Tris-HCl pH 7.6, room temperature, 2 h.

For the compound `CN(C)[C@@H]1C(=O)C(C(N)=O)=C(O)[C@@]2(O)C(=O)C3=C(O)c4c(O)cccc4[C@@](C)(O)[C@H]3[C@H](O)[C@@H]12`, for the setting “5 µM compound, 85 ± 2.8% captured”, the binding result was “yes”.
For the compound `O=C(O)Cc1ccccc1Nc1c(Cl)cccc1Cl`, under “tested at 5 µM, 8.7 ± 3.7% non-specifically adsorbed”, the binding result is on record as “no”.
With `COc1ccc2cc([C@H](C)C(=O)O)ccc2c1`, the binding result (tested at 5 µM, 9.0 ± 1.3% non-specifically adsorbed) is reported as “no”.
